Paper PMC9757755, “Mechanisms of ion selectivity and throughput in the mitochondrial calcium uniporter” (Science Advances, 2022)

Target: T1, TcMCU-EMRE (TcMCU-EMREEM2) (Tribolium castaneum, UniProt D6WIX5)
T1 construct: gene MCU; MCU without N-terminal domain (residues 1-168 removed), covalently fused to EMRE by flexible peptide linker; tetramer; Venus fusion removed by PreScission cleavage; expressed in Expi293 cells; purified, reconstituted in liposomes and planar bilayer; with Essential MCU regulator, mitochondrial
T1 sequence (D6WIX5 169-367): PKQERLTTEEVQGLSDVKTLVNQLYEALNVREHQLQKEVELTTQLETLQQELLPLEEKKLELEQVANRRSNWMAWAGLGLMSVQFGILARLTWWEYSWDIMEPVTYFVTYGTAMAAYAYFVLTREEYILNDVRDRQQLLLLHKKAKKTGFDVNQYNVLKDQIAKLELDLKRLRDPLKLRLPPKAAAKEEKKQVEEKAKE
T1 sequence (D6X268 1-90 partner): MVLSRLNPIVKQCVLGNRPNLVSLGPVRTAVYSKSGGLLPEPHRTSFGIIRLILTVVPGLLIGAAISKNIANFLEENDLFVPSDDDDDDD
Assay: planar lipid bilayer electrophysiology, inhibition of macroscopic Ca2+ currents
Type: biochemical
Conditions: symmetric 40 mM CaCl2, -160 mV, pH 7.6, 22-24 C; RuRed titrated in trans chamber with 1 uM RuRed in cis; IMS-side blocker

## Cl.Cl.Cl.Cl.Cl.Cl.N.N.N.N.N.N.N.N.N.N.N.N.N.N.[O-2].[O-2].[Ru+3].[Ru+3].[Ru+4] [ruthenium red]
  IC50: ~40 nM
